Laboratory results reported in article PMC11872639 (Food Chemistry: Molecular Sciences, 2025).
Where two headings read alike, the source gives them in different places.

What was measured:
[1] = target: T1, TAS1R2/TAS1R3 (Homo sapiens, UniProt Q7RTX0+Q8TE23); assay: Calcium mobilization assay, HEK293T-Gα16gust44 cells expressing TAS1R2/TAS1R3; assay type: cell-based
T1 construct: we performed functional expression of the full-length heterodimeric sweet taste TAS1R2/TAS1R3 receptor using HEK293-derived cells; expressed in transfected cells; host or cells: HEK293T-Gα16gust44 cells transfected with pcDNA6-TAS1R2 and pcDNA4-TAS1R3
T1 sequence (Q8TE23 20-839): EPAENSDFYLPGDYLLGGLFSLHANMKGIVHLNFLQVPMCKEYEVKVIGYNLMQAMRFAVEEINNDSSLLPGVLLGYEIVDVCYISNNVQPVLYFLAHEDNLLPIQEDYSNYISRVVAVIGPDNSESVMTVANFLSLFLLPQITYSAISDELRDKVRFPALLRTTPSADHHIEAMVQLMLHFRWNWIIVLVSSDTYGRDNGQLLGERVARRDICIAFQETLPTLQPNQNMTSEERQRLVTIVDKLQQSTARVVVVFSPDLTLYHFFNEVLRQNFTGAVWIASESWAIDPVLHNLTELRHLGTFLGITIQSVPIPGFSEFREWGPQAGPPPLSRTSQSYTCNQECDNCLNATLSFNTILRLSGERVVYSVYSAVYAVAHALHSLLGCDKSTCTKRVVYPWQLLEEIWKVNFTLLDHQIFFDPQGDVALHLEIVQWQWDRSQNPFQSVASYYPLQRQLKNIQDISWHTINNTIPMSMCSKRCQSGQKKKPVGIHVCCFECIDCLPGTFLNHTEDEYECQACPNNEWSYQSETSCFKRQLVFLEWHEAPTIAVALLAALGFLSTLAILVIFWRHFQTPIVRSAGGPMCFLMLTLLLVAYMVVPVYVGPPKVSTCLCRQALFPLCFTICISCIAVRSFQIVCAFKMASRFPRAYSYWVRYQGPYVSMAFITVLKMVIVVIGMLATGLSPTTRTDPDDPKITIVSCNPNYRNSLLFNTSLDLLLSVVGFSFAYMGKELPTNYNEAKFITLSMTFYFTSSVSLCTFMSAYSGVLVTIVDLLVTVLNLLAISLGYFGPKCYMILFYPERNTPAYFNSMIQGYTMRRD
T1 sequence (Q7RTX0 21-852): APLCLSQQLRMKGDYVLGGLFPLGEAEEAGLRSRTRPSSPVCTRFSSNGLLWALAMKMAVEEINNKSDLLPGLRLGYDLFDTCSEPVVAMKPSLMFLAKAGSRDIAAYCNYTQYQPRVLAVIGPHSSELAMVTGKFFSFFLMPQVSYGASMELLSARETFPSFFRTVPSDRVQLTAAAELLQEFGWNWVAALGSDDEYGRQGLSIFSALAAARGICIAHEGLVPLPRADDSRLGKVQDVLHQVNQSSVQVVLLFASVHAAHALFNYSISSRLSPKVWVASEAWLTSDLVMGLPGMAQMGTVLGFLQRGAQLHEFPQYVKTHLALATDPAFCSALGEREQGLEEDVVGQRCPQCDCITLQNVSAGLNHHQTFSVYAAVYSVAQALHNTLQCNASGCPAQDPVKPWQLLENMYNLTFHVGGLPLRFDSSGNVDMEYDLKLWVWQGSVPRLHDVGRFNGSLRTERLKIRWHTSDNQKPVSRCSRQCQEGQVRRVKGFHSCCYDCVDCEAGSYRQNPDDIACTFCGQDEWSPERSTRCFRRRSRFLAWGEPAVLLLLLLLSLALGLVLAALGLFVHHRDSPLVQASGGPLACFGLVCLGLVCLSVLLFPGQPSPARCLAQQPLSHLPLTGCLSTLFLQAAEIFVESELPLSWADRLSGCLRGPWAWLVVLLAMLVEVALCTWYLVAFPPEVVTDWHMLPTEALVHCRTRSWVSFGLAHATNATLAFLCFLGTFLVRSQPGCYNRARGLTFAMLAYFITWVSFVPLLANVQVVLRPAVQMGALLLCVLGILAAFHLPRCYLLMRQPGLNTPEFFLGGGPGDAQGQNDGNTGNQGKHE
Description: (§1) The synthetic cDNA optimized for human TAS1R2 and TAS1R3 expression was cloned into the pcDNA6-myc-HisA and pcDNA4-myc-HisA vectors, generating the pcDNA6-TAS1R2 and pcDNA4-TAS1R3 plasmids, respectively (Genewiz).
(§2) The stable HEK293T-Gα16gust44 cells were constructed by stable transfection of pcDNA3.1/Hygro-Gα16gust44 plasmid into HEK293T cells using Lipofectamine 2000 (Invitrogen). After 48 h, the cells were selected with 400 μg/mL hygromycin for 2–3 weeks. Thirty individual hygromycin-resistant colonies were expanded and screened for functional expression after transient co-transfection with pcDNA6-TAS1R2 and pcDNA4-TAS1R3 and measurement of calcium responses to sucralose. In the same way, clone selection was done under zeocin selection (250 μg/mL) to generate a stable HEK293T-Gα16gust44-TAS1R3 cell line for further calcium mobilization assays.
(§3) Forty-eight hours before the assay, HEK293T-Gα16gust44 or HEK293T-Gα16gust44-TAS1R3 cells were plated (4 × 10^4 cells/well) on poly-D-lysine-coated 96-well plates. Twenty-four hours later, cells were transiently transfected with pcDNA6-TAS1R2 and pcDNA4-TAS1R3 with Lipofectamine 2000 according to the manufacturer's instructions. As a negative control, HEK293T cells were mock-transfected with the empty expression vector. […] The fluorescence intensity was measured for 90 s after the addition of the compounds. […] All concentration-receptor combinations were measured in triplicate, and each experiment was repeated at least four times. The Ca^2+ changes are expressed as fractional changes in fluorescence light intensity: ΔF/F0 = (F—F0)/F0, where F is the fluorescence light intensity at each point and F0 is the value of emitted fluorescent light before the stimulus application. For the calculation of dose-response relationships, the changes in fluorescence upon stimulus application were averaged, mock-subtracted and baseline-corrected. The resulting dose-response data were fitted using a four-parameter logistic equation. The half-maximal effective concentrations (EC50 values) were calculated using SigmaPlot software.

[2] = target: T2, TAS1R3 (Homo sapiens, UniProt Q7RTX0); assay: Calcium mobilization assay, HEK293T-Gα16gust44 cells stably expressing TAS1R3 alone; assay type: cell-based
T2 construct: we performed functional expression of the full-length heterodimeric sweet taste TAS1R2/TAS1R3 receptor using HEK293-derived cells; expressed in transfected cells
T2 sequence (Q7RTX0 21-852): T1 sequence (Q7RTX0 21-852)
Description: as §1, §2, §3

[3] = target: T3, TAS1R1-VFT (Homo sapiens, UniProt Q7RTX1); assay: Ligand binding by intrinsic tryptophan fluorescence, TAS1R1-VFT
T3 construct: followed by TAS1R1-VFT (Phe21-Ser495) or TAS1R2-VFT (Ala22-Ser493) and a second His6-tag; His6-tag (thrombin-cleavable) (N); made in house
T3 sequence (Q7RTX1 21-495): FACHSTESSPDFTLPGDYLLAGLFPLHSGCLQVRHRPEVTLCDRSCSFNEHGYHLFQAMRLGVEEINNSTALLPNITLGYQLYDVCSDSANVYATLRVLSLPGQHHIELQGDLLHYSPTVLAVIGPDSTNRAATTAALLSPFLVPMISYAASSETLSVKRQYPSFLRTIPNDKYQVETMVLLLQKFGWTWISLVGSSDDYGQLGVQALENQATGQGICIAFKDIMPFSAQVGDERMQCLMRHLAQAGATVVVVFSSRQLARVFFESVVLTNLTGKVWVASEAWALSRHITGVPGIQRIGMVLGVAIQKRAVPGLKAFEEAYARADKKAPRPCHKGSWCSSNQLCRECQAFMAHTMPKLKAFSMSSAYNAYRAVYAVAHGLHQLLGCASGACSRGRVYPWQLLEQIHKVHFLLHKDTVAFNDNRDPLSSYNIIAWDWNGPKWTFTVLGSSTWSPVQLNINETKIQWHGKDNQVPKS
Description: The intrinsic fluorescence of TAS1R-VFTs was measured using a Cary Eclipse spectrofluorometer (Varian Instruments, Palo Alto, CA, USA) equipped with a Peltier temperature control unit. […] Ligand solutions were freshly prepared in the same buffer. […] The temperature was kept constant at 20 °C. Fluorescence measurements were corrected for dilution, bleaching and nonspecific buffer quenching. Kd values and standard errors were calculated from a plot of the ratio between the fluorescence intensity variation and the maximum of fluorescence intensity variation versus concentration of total ligand, obtained with a standard non-linear regression method and using a one-site saturation ligand binding equation within SigmaPlot software (version 15.0, Grafiti, Palo Alto, CA, USA). […] The Kd values of ligand-receptor interactions were determined using the equation ΔF/ΔFmax = Bmax [L]/(Kd + [L]), where Kd is the apparent dissociation constant, ΔF is the difference between the fluorescence intensity at a given concentration of ligand and the fluorescence intensity in the absence of ligand, ΔFmax is the difference at infinite ligand concentration [L], Bmax is the maximum fluorescence signal, and [L] corresponds to the concentration of ligands. The reported Kd values are the average of six measurements performed on at least three independently refolded protein samples. […]

[4] = target: T4, TAS1R3-VFT (Homo sapiens, UniProt Q7RTX0); assay: Ligand binding by intrinsic tryptophan fluorescence, TAS1R3-VFT
T4 construct: pET28-TAS1R3-VFT encodes an N-terminal His6-tag followed by TAS1R3-VFT (Ala21-Ser497) and the Strep-tag II; made in house
T4 sequence (Q7RTX0 21-497): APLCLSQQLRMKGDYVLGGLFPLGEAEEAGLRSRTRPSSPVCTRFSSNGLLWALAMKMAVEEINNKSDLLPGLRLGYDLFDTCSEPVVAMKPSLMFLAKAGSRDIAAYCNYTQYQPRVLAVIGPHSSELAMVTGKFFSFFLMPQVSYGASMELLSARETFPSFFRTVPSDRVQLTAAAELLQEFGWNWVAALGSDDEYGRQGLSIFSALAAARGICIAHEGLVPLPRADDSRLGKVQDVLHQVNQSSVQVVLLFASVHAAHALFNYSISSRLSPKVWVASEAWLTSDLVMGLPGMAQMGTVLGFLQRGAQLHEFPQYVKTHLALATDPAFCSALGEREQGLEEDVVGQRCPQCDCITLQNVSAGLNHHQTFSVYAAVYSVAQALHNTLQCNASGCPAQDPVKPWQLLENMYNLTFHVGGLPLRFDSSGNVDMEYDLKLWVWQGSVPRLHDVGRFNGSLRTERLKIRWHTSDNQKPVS
Description: The intrinsic fluorescence of TAS1R-VFTs was measured using a Cary Eclipse spectrofluorometer (Varian Instruments, Palo Alto, CA, USA) equipped with a Peltier temperature control unit. […] Ligand solutions were freshly prepared in the same buffer. […] The temperature was kept constant at 20 °C. Fluorescence measurements were corrected for dilution, bleaching and nonspecific buffer quenching. Kd values and standard errors were calculated from a plot of the ratio between the fluorescence intensity variation and the maximum of fluorescence intensity variation versus concentration of total ligand, obtained with a standard non-linear regression method and using a one-site saturation ligand binding equation within SigmaPlot software (version 15.0, Grafiti, Palo Alto, CA, USA). […] The Kd values of ligand-receptor interactions were determined using the equation ΔF/ΔFmax = Bmax [L]/(Kd + [L]), where Kd is the apparent dissociation constant, ΔF is the difference between the fluorescence intensity at a given concentration of ligand and the fluorescence intensity in the absence of ligand, ΔFmax is the difference at infinite ligand concentration [L], Bmax is the maximum fluorescence signal, and [L] corresponds to the concentration of ligands. The reported Kd values are the average of six measurements performed on at least three independently refolded protein samples. All compounds were obtained from Sigma-Aldrich. Statistical analyses: Dunnett's test (p ≤ 0.05) was used to determine the statistical significance between data means.

[5] = sweet compound alone (Fig. 3, IMP series)
[6] = sweet compound alone (Fig. 5c,d, MSG series)

C=C(C)C1CC=C(/C=N/O)CC1 (stereo in doubt) [Perillartine, perillartine]
EC50 [1, 5]: 24 ± 2 µM

[Ca+2].[Cl-].[Cl-] [CaCl2]
EC50 ([2]; CaCl2 alone, TAS1R3 alone): 47000 ± 13000 µM
max (maximal amplitude, ΔF/F0) ([2]; CaCl2 alone, TAS1R3 alone): 0.37
max (maximal amplitude, ΔF/F0) ([2]; CaCl2 in the presence of 10 mM IMP, TAS1R3 alone): 0.17
max (maximal amplitude, ΔF/F0) ([2]; CaCl2 in the presence of 10 mM cyclamate, TAS1R3 alone): 0.14
EC50 ([1]; CaCl2 alone, TAS1R2/TAS1R3): 28000 ± 3000 µM
max (maximal amplitude, ΔF/F0) ([1]; CaCl2 alone, TAS1R2/TAS1R3): 0.40
max (maximal amplitude, ΔF/F0) ([1]; CaCl2 in the presence of 10 mM IMP, TAS1R2/TAS1R3): 0.28
max (maximal amplitude, ΔF/F0) ([1]; CaCl2 in the presence of 10 mM cyclamate, TAS1R2/TAS1R3): 0.19

O=S(=O)(O)NC1CCCCC1 [Cyclamate, cyclamate]
amplitude of the maximum calcium-induced response of TAS1R3 reduced to ([2]; modulator at 10 mM, CaCl2 stimulation): ~62%
EC50 [1, 5]: 2310 ± 954 µM

N[C@H](CCC(=O)O)C(=O)O [D-Glu, D-glutamate]
impact on the fluorescence intensity of TAS1R1-VFT ([3]; negative control): no significant impact
Kd TAS1R3-VFT ([4]; ligand alone, absence of IMP, mean ± SEM, 20 °C, pH 8.0): nb
impact on the fluorescence intensity of TAS1R3-VFT ([4]; negative control): no significant impact

N[C@@H](CC(=O)O)C(=O)O [L-Asp, L-aspartate]
Kd [3]: 0.21 ± 0.06 µM
Kd ([4]; read-out: Kd TAS1R3-VFT): 1.18 ± 0.33 µM

N[C@@H](CCC(=O)O)C(=O)O [L-Glu, L-glutamate]
Kd [4]: 0.75 ± 0.2 µM

COc1ccc(CCC(=O)c2c(O)cc(O[C@@H]3O[C@H](CO)[C@@H](O)[C@H](O)[C@H]3O[C@@H]3O[C@@H](C)[C@H](O)[C@@H](O)[C@H]3O)cc2O)cc1O [NHDC, neohesperidine dihydrochalcone]
EC50 [1, 5]: 41 ± 29 µM

COC(=O)[C@H](Cc1ccccc1)NC(=O)[C@H](CC(=O)O)NCCC(C)(C)C [Neotame, neotame]
EC50 [1, 5]: 0.97 ± 0.12 µM
EC50 ([1]; sweet compound alone (Fig. 5a,b, GMP series)): 0.3 ± 0.08 µM
EC50 [1, 6]: 1.09 ± 0.16 µM

OC[C@H]1O[C@H](O[C@]2(CCl)O[C@H](CCl)[C@@H](O)[C@@H]2O)[C@H](O)[C@@H](O)[C@H]1Cl [Sucralose, sucralose]
EC50 [1, 5]: 57 ± 13 µM
EC50 [1, 6]: 56 ± 6 µM
decrease in EC50 values by IMP (synergistic effect) ([1]; sweetener with IMP vs sweetener alone): 3 fold
